Laboratory results taken from patent publication US20260133203A1, “DETECTION OF FUMARATE-DERIVED MODIFICATION IN A TEST SAMPLE” (UNIVERSITY OF SOUTH CAROLINA, priority 2017, published 2026).
Counter-ions that a name gives are not always drawn.

Molecular target: T1, Collapsin Response Mediator 2 (CRMP2) (Rattus norvegicus, UniProt P47942)
T1 construct: Primary neurons from newborn rat brain cortices were isolated and cultured; endogenous in cells; host or cells: primary rat cortical neurons (postnatal day 1)
Test: LC-MS/MS site mapping of CRMP2 peptide GLYDGPVCEVSVTPK succination
Type: cell-based
Conditions: primary rat neurons, +2 charge-state, y8 and b8 fragment ions
Experimental: Primary neurons from newborn rat brain cortices were isolated and cultured using an adaptation of methods described previously. Briefly, postnatal day 1 rats were sacrificed by decapitation, the brains were aseptically dissected, and cortices were separated from the rest of the brain in ice-cold Hibernate®-A medium (Life Technologies) containing 2% (v/v) B-27 supplement (Life Technologies) and 0.5 mM glutamine (Invitrogen™). The tissue was minced in fragments of about 1 mm3 with a scalpel and subjected to digestion with 2 mg/ml papain (Worthington) in the supplemented Hibernate®-A medium for 20 minutes at 30° C. in a shaker incubator set at 100 rpm. After thorough trituration through a fire-polished Pasteur pipette, the tissue was allowed to settle for 5 minutes and the supernatant was carefully layered on top of a discontinuous OptiPrep™ (Sigma-Aldrich™) gradient prepared in Hibernate®-A medium; the layers contained 35, 25, 20 and 15% OptiPrep™. […] After a centrifugation at 500 g for 5 min at room temperature, cells were resuspended in Neurobasal™—A medium containing 0.5 mM glutamine, 2% B-27 supplement, and 5 ng/ml bFGF (Invitrogen™); counted and plated on 24-well plates pretreated with 0.01% poly-L-lysine (Sigma-Aldrich™) at a density of 200,000 cells/well. […] The protein content in the different samples was determined by the Lowry assay. […]

site of succination on CRMP2: Cys504
Structure (SMILES): COC(=O)/C=C/C(=O)OC [DMF, dimethyl fumarate]
